Results from patent publication US20240261418A1, “SOS1 DEGRADING AGENT AND PREPARATION METHOD THEREFOR AND APPLICATION THEREOF” (SHANGHAI LEADINGTAC PHARMACEUTICAL CO. LTD., priority 2021, published 2024).

Biological target: T1, SOS1 protein (Homo sapiens, UniProt Q07889)
T1 sequence (Q07889 1-1333): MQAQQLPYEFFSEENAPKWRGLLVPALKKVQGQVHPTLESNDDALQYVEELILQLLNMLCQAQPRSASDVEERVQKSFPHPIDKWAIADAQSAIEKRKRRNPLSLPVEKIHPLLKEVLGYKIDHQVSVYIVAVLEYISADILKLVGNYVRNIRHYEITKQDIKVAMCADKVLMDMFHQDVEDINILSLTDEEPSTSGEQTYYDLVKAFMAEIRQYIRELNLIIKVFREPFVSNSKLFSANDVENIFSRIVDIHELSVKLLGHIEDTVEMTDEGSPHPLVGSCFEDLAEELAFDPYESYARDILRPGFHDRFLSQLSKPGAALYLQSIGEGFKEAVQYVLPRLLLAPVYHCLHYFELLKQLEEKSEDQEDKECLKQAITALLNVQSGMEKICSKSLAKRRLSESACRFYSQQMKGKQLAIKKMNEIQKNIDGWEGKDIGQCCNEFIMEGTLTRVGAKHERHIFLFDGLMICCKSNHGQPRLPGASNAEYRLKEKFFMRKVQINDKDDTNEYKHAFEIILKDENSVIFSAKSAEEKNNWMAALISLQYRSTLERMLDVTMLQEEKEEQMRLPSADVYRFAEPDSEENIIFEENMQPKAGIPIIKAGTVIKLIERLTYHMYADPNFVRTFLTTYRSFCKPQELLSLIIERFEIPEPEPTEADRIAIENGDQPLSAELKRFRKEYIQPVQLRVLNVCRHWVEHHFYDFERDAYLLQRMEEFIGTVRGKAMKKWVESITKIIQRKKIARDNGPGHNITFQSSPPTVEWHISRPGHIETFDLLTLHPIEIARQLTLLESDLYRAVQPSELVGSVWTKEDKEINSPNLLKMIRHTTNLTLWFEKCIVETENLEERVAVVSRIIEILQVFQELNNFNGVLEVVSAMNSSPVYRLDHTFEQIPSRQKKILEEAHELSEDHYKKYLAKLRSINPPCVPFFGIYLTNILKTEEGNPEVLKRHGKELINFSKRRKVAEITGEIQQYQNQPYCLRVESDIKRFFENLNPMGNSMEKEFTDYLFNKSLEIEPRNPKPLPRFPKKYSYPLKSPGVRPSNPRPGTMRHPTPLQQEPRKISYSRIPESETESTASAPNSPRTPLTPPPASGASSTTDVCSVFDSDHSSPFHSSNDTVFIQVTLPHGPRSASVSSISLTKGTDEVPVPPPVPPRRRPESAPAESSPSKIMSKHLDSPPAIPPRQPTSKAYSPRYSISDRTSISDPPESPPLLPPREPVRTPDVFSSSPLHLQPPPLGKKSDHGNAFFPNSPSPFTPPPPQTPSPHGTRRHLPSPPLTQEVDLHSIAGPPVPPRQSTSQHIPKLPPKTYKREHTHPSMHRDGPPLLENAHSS
Assay: SOS1 degradation assay (Western blot) in DLD-1 cells
Type: cell-based
Set-up: host or cells: NCI-H358, A-427, SW-620, DLD-1 (human cancer cell lines)
Details: DLD-1 (KRAS G13D), 24 h
Protocol: Test Example 2: SOS1 Degradation Assay
The degradation of SOS1 by the compounds was investigated on KRAS G12C mutant human non-small cell lung cancer cells NCI-H358 (ATCC or Stem Cell Bank, Chinese Academy of Sciences), KRAS G12D mutant human lung cancer cells A-427 (ATCC), KRAS G12V mutant human colorectal adenocarcinoma cells SW-620 (ATCC), and KRAS G13D mutant human colorectal adenocarcinoma epithelial cells DLD-1 (ATCC). The specific procedures were as follows:
0.95 mL of cells were seeded into each well of a 24-well cell culture plate to achieve a cell density of 5×10^5 cells/well; the cell plate was incubated in an incubator at 37° C. with 5% CO2 overnight. Then 50 μL of the compound solution after dilution was added to each of the wells with the corresponding cells, so that the final concentration of the compound was in a range of 0.03-3000 nM. The final concentration of DMSO was 0.25%.
After dosing, the cell plate was incubated in an incubator at 37° C. with 5% CO2 for 24 h. The cell culture medium in the 24-well plate was removed, and the plate was washed twice with 1×PBS. 180 μL of RIPA (strong) lysis buffer (Beyotime, P0013B) supplemented with 1 mM phenylmethylsulfonyl fluoride, a protease inhibitor mixture (Beyotime, P1008), and a protease phosphatase inhibitor mixture (Beyotime, P1045) was added to lyse adherent NCI-H358 cells at the bottom of the cell culture plate. After the plate was left to stand on ice for 30 min, the protein lysate in each well was transferred to a 1.5 mL centrifuge tube and centrifuged at 15000 g for 20 min at 4° C. […] The concentration of total protein in the cell lysate supernatant was determined using the BCA Protein Quantification Kit (Tiangen, PA115-02). […]
The concentration of total protein in the cell lysate was determined by BCA. […] After the blocking, the PVDF membrane was incubated with an SOS1 primary antibody (Abcam, ab140621) at 4° C. overnight, washed with a TBST buffer (2.4 g of Tris, 8.8 g of NaCl, 1.5 mL of Tween 20, with pH adjusted to 7.4, with the volume brought to 1 L) for 30 min (10 min/time), incubated with a secondary antibody (Abcam, ab205718) at room temperature for 2 h, washed with a TBST buffer for 30 min (10 min/time), and finally incubated with Clarity Western ECL Substrate (BIO-RAD, 170-5061) for 5 min for luminescence and color development, and a chemiluminescence imaging system (Clinx, ChemiScope 6200 Touch) was used for color development and protein mapping. […] The gray correction value for each sample was calculated by the formula: gray correction value=(gray value of target protein/gray value of corresponding internal reference)×103. Then the degradation rate was calculated by comparing the gray correction value with the gray correction value of the control group. […]

SMILES	DC50 [nM]	Dmax [%]
COc1cc2nc(C)nc(N[C@H](C)c3cc(-c4c(Cl)cccc4CN(C)C)cs3)c2cc1[C@H]1CC[C@H](C(=O)N2CCN(CC3CCC4(CC3)CCN(C(=O)c3ccc(Cl)c(N5CCC(=O)NC5=O)c3)CC4)CC2)CC1 [Example 1, 1-(2-chloro-5-(9-((4-((1R,4R)-4-(4-(((R)-1-(4-(2-chloro-6-((dimethylamino)methyl)phenyl)thien-2-yl)ethyl)amino)-7-methoxy-2-methylquinazolin-6-yl)cyclohexane-1-carbonyl)piperazin-1-yl)methyl)-3-azaspiro[5.5]undecane-3-carbonyl)phenyl)dihydropyrimidine-2,4(1H,3H)-dione]	≤ 50	80 to 100
COc1cc2nc(C)nc(N[C@H](C)c3cc(-c4c(Cl)cccc4CN(C)C)cs3)c2cc1[C@H]1CC[C@H](C(=O)N2CCC(CCOCC3CCN(C(=O)c4ccc(Cl)c(N5CCC(=O)NC5=O)c4)CC3)CC2)CC1 [Example 5, 1-(2-chloro-5-(4-((2-(1-((1R,4R)-4-(4-(((R)-1-(4-(2-chloro-6-((dimethylamino)methyl)phenyl)thien-2-yl)ethyl)amino)-7-methoxy-2-methylquinazolin-6-yl)cyclohexane-1-carbonyl)piperidin-4-yl)ethoxy)methyl)piperidine-1-carbonyl)phenyl)dihydropyrimidine-2,4(1H,3H)-dione]	≤ 50	80 to 100
